From publication PMC4505625 (Cancer cell, 2015)

How the values were obtained:
MHH-CALL4 cells [1] = assay: Immunoblotting of MHH-CALL4 lysates; type: cell-based, human; conditions: 1 μM, 2 hr
[2] = system: Ba/F3-CRLF2 cells expressing JAK2 R683G or JAK2 R683G/L884P; assay: Proliferation, L884P versus no L884P, JAK2 R683G; type: cell-based; conditions: 48 hr
MHH-CALL4 cells [3] = assay: MHH-CALL4 cell viability; type: cell-based, human; conditions: 72 hr
CRLF2-rearranged PDXs [4] = assay: PDX cells ex vivo, proliferation and apoptosis; type: cell-based, human; conditions: 1 μM; B-ALL-X2, -X3, -X4, -X6
[5] = system: Eμ-CRLF2/Eμ-Jak2 R683G/Ts1Rhr/Pax5+/− (line 2539p) B-ALL; assay: Transplanted transgenic murine B-ALL model; conditions: 14 days of treatment from day 15 after transplant
MHH-CALL4 cells [6] = assay: Synergy screen with B-ALL chemotherapies; type: cell-based, human; conditions: isobologram, combination index
wild-type mice = assay: Tolerability in wild-type mice; type: in vivo; conditions: 30 mg/kg/day for >6 weeks
[7] = system: Ba/F3-CRLF2 cells transduced with a library of JAK2 R683G; assay: Random mutagenesis screen for resistance; type: cell-based; conditions: 3 μM inhibitor, absence of cytokines
ABL = ABL (Homo sapiens, UniProt P00519); assay: Cell-based kinase selectivity assay; conditions: follow-up of kinome panel hit
[8] = system: Ba/F3-EpoR cells expressing JAK2 V617F or JAK2 V617F/L884P; assay: Proliferation, L884P versus no L884P, JAK2 V617F; type: cell-based; conditions: 48 hr
PDGFR family kinases = assay: Cell-based kinase selectivity assay
FLT3 = FLT3 (Homo sapiens, UniProt P36888); assay: Off-target activity compared with BBT594
RET [9] = target: T1, RET (Homo sapiens, UniProt P07949); assay: Cell-based kinase selectivity assay; conditions: follow-up of kinome panel hit
CRLF2-rearranged PDXs [10] = assay: Dynamic BH3 profiling of PDX cells ex vivo; type: cell-based, human; conditions: 300 nM, 16 hr ex vivo
Passive permeability = type: in vitro ADME
[11] = system: Ba/F3 cells expressing TEL-JAK2; assay: Ba/F3 TEL-JAK2 growth inhibition; type: cell-based
[12] = Drug concentration within the spleen, rhEpo model; type: in vivo, mice; conditions: oral 30 mg/kg/day
[13] = system: CRLF2-rearranged B-ALL PDXs
[14] = system: Ba/F3-CRLF2 cells expressing JAK2 R683G/L884P; assay: Immunoblotting of Ba/F3-CRLF2 JAK2 R683G/L884P lysates; type: cell-based; conditions: concentrations up to 200 nM, 2 hr
VEGFR family kinases = assay: Cell-based kinase selectivity assay
JAK2 = JAK2 (Homo sapiens, UniProt O60674); assay: JAK2-driven cellular assays; type: cell-based
Metabolic stability = type: in vitro ADME
BALB/c mice = assay: rhEpo-induced splenomegaly and reticulocytosis, four days; type: in vivo; conditions: 30 mg/kg/day, sacrificed day 5
[15] = target: activated (phosphorylated) JAK2 kinase (Homo sapiens, UniProt O60674); assay: JAK2 biochemical kinase assay
KIT = KIT (Homo sapiens, UniProt P10721); assay: Cell-based kinase selectivity assay
[16] = system: Ba/F3-CRLF2/JAK2 R683G cells; assay: Immunoblotting of Ba/F3-CRLF2/JAK2 R683G lysates; type: cell-based; conditions: 2 hr exposure
BCR-ABL = BCR-ABL (Homo sapiens, UniProt P00519+P11274); assay: Off-target activity compared with BBT594
BRAF = BRAF (Homo sapiens, UniProt P15056); assay: Cell-based kinase selectivity assay; conditions: follow-up of kinome panel hit
[17] = system: pSTAT5 in the spleen and bone marrow; assay: rhEpo-induced pSTAT5 in murine model of polycythemia; type: in vivo, mice
RET [18] = target: T1, RET; assay: Off-target activity compared with BBT594
[19] = system: panel consisting of over 400 kinases; assay: In vitro kinase selectivity panel; type: biochemical; conditions: 100 nM; including JAK2 and TYK2
Pharmacokinetics = type: in vivo, mice

activated (phosphorylated) JAK2 kinase, sequence (O60674 808-1132): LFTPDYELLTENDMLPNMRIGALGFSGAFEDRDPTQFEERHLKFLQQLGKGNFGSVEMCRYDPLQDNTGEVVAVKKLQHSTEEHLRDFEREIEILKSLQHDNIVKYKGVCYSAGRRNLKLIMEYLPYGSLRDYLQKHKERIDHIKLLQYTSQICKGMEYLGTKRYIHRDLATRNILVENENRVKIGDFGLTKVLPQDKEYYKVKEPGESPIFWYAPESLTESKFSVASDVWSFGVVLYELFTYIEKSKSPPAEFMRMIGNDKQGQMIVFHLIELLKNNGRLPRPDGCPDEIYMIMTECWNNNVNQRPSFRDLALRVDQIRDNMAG
T1 sequence (P07949 29-1114, species assumed): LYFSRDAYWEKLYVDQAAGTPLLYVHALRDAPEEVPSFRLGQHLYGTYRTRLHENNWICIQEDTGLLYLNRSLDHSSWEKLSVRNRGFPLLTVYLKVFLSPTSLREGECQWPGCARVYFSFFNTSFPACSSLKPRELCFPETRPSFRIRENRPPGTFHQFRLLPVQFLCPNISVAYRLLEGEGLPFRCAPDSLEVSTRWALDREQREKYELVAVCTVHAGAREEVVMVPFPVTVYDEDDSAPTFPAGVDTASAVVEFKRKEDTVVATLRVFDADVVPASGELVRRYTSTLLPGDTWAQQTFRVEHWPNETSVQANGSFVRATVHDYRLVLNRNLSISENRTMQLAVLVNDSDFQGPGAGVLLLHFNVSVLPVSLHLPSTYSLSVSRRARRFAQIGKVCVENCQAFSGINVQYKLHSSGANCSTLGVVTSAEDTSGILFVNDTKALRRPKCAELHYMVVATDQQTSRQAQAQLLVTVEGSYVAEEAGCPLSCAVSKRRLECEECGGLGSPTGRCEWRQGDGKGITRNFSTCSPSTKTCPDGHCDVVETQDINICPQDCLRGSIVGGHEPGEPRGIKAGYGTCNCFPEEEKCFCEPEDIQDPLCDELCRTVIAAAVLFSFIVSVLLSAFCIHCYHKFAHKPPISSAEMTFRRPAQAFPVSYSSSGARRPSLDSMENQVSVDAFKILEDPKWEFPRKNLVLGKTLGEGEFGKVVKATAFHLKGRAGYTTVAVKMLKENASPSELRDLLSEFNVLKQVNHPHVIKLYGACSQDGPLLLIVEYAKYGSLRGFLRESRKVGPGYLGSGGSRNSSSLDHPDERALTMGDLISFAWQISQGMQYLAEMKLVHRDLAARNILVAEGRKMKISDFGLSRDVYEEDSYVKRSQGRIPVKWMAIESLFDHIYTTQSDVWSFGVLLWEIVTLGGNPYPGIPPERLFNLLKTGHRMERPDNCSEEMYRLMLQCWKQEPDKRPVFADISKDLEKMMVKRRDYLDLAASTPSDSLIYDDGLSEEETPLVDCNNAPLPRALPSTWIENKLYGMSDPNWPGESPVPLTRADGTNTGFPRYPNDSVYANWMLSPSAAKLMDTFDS
KIT, sequence (P10721 26-976, species assumed): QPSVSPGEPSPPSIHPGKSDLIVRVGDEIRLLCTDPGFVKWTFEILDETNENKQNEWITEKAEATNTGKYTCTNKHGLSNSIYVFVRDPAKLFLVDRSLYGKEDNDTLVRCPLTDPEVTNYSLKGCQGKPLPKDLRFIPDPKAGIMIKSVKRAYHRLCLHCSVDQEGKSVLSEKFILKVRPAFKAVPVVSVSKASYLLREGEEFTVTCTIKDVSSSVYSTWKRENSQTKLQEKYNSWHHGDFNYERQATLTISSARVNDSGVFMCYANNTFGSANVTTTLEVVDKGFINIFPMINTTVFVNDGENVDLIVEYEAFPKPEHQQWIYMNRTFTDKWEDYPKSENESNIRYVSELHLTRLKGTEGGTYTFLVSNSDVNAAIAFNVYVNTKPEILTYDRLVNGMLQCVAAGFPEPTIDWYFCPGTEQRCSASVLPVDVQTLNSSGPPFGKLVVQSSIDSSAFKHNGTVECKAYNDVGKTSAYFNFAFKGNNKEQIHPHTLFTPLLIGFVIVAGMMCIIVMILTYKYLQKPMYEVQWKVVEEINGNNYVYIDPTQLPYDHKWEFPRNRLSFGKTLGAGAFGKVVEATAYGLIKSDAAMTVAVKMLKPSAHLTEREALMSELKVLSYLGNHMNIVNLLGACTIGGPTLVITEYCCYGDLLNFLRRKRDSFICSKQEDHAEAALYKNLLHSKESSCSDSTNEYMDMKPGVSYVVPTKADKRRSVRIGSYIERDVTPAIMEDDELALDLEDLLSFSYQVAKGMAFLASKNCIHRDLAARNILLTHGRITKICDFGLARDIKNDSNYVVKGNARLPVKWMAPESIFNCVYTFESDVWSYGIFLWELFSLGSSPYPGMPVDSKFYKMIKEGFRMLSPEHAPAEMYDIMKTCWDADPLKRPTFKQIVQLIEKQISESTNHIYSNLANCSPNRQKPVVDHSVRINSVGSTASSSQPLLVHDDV
JAK2, sequence (O60674 840-1132 limits assumed): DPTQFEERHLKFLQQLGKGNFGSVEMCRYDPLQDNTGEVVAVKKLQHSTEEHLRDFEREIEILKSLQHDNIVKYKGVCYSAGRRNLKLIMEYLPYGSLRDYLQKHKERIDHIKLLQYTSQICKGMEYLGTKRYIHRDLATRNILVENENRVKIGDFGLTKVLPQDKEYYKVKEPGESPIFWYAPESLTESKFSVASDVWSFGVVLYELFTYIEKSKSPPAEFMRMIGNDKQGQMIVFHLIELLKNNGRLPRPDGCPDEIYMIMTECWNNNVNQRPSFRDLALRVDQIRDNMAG
ABL, sequence (P00519 whole entry, species assumed): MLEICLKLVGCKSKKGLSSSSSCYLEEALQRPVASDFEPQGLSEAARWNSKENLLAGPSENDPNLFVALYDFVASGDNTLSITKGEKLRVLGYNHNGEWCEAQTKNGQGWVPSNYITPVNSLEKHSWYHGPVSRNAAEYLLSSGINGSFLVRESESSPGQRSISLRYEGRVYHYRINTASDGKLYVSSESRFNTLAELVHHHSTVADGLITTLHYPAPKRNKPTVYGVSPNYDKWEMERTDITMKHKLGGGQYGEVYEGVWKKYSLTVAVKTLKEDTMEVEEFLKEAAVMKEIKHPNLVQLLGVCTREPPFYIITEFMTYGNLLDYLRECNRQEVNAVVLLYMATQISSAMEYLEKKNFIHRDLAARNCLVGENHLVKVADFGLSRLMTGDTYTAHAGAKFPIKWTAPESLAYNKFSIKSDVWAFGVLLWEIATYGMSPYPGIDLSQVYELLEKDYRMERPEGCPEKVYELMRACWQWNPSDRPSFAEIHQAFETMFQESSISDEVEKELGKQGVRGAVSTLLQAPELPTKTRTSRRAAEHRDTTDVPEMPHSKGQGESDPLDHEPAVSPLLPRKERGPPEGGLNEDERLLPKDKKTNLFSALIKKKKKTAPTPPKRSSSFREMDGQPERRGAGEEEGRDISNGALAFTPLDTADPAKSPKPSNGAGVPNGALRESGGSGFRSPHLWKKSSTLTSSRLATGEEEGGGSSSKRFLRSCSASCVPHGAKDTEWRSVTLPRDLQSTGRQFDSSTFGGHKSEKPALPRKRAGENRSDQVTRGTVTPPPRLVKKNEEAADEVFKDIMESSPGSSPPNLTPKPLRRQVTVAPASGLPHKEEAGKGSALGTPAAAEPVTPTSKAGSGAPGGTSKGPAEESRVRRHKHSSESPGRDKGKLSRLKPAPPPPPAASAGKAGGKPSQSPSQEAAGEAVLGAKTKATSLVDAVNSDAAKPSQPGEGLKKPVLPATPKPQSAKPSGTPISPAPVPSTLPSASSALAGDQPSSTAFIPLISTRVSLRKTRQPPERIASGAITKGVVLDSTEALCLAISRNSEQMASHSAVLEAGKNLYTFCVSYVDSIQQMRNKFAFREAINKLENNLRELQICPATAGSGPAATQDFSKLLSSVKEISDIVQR
FLT3, sequence (P36888 27-993, species assumed): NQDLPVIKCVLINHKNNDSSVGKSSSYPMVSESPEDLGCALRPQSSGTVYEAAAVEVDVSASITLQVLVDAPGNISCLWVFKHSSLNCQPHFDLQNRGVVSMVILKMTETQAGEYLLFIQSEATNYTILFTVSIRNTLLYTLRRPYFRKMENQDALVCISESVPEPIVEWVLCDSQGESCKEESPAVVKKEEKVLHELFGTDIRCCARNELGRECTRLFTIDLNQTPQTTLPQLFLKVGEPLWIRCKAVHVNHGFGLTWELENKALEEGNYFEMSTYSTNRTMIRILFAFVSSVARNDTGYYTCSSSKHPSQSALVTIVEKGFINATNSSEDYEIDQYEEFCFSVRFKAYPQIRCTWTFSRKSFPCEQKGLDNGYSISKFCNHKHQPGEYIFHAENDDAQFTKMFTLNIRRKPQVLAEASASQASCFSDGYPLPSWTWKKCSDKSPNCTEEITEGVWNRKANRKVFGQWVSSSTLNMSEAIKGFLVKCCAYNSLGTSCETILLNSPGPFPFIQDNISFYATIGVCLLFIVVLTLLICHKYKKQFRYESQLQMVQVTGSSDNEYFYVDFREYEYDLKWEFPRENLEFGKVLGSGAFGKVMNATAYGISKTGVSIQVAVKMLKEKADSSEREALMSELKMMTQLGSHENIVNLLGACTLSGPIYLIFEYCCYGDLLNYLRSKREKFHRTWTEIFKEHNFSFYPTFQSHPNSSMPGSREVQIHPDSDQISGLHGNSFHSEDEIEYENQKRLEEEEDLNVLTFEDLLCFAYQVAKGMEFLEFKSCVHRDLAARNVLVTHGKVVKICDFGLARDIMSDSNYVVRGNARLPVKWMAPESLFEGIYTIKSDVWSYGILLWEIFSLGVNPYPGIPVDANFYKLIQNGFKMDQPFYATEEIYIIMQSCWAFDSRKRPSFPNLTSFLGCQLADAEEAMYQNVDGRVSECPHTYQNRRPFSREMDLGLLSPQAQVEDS
BCR-ABL, sequence (P00519 242-493 limits assumed, one chain of several): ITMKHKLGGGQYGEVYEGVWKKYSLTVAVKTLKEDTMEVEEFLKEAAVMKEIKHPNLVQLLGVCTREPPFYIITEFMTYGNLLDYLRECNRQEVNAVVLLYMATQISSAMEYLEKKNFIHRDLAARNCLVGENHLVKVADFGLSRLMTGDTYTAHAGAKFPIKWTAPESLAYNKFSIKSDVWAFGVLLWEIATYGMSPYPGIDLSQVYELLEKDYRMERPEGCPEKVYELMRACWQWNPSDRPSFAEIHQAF

C[C@@H]1CN(c2ccc(Nc3ncc4ccn(-c5cc(F)c(CN6CCOCC6)c(F)c5)c4n3)cc2)C[C@H](C)N1 [BVB808]
JAK2 activation loop phosphorylation (MHH-CALL4 cells [1]): hyperphosphorylation | IC50 fold-shift for cells expressing L884P compared to cells without L884P [2]: minimal effects | IC50 (MHH-CALL4 cells [3]): > 2000 nM

N#CC[C@H](C1CCCC1)n1cc(-c2ncnc3[nH]ccc23)cn1 [ruxolitinib]
JAK2 activation loop phosphorylation (MHH-CALL4 cells [1]): hyperphosphorylation | apoptosis ex vivo (CRLF2-rearranged PDXs [4]): little or no effect | proliferation ex vivo (CRLF2-rearranged PDXs [4]): little or no effect

C[C@@H]1C[C@H]2[C@@H]3CCC4=CC(=O)C=C[C@]4(C)[C@@]3(F)[C@@H](O)C[C@]2(C)[C@@]1(O)C(=O)CO [dexamethasone, reference compound]
overall survival compared to vehicle [5]: increased overall survival | synergy with CHZ868 (MHH-CALL4 cells [6]): most notable synergy

Fc1cc(-c2cccc3ncc(-c4cnn(C5CCNCC5)c4)nc23)cc(F)c1CN1CCOCC1 [BSK805]
JAK2 activation loop phosphorylation (MHH-CALL4 cells [1]): hyperphosphorylation | IC50 fold-shift for cells expressing L884P compared to cells without L884P [2]: minimal effects | IC50 (MHH-CALL4 cells [3]): > 2000 nM

CC(=O)Nc1cc(Oc2ccc3c(nc(Nc4ccc(F)cc4F)n3C)c2C)ccn1 [CHZ868]
effects on body weight, peripheral blood cell counts, bone marrow cellularity, fractions of hematopoietic progenitors (wild-type mice): no significant effects | spleen weights (wild-type mice): trends towards reduced | serum erythropoietin levels (wild-type mice; trend): elevated | resistant clones recovered after selection [7]: none | activity against ABL in the cellular setting (ABL): not corroborated | JAK2 activation loop phosphorylation (MHH-CALL4 cells [1]): suppressed JAK2 phosphorylation | IC50 fold-shift for cells expressing L884P compared to cells without L884P [8]: 2–3 fold | activity against PDGFR family kinases in the cellular setting (PDGFR family kinases): low nanomolar activity | FLT3 inhibition compared with BBT594 (FLT3): significantly reduced | activity against RET in the cellular setting (RET [9]): not corroborated | cytochrome C release upon exposure to BIM compared to vehicle (CRLF2-rearranged PDXs [10]): significantly increased | passive permeability (Passive permeability): high | overall survival compared to vehicle [5]: increased overall survival | activity in Ba/F3 TEL-JAK2 cells [11]: highly active | concentration within the spleen ([12]; 2 hr after dosing): 4.3 nmol/g | drug level within the spleen ([12]; 6 hr after dosing): < 1 nmol/g | pSTAT5 in spleens ([13]; 30 mg/kg/day, 6 days): almost complete loss | peripheral WBC counts compared to control animals ([13]; 30 mg/kg/day, 6 days): lower | splenomegaly compared to control animals ([13]; 30 mg/kg/day, 6 days): reduced splenomegaly | overall survival compared to control animals ([13]; 25 days of treatment): markedly improved | suppressive effects on pJAK2, pSTAT5, and c-Myc in presence of L884P [14]: abrogated | activity against VEGFR family kinases in the cellular setting (VEGFR family kinases): low nanomolar activity | potency in JAK2-driven cellular assays (JAK2): excellent potency | metabolic stability (Metabolic stability): good | WBC count (BALB/c mice): did not affect | increase in reticulocyte count induced by rhEpo (BALB/c mice): blocked | splenomegaly induced by rhEpo (BALB/c mice): completely blocked | IC50 fold-shift for cells expressing L884P compared to cells without L884P [2]: 4 fold | inhibitory activity in enzymatic assays ([15]; activated (phosphorylated) JAK2 kinase): modest inhibitory activity | JAK2 inhibitory activity, fold improved over BBT594 ([15]; enzymatic and cell-based assays, Figure 1B): 3–9 fold | activity against KIT in the cellular setting (KIT): low nanomolar activity | pJAK2 and pSTAT5 by immunoblotting [16]: completely abrogated | apoptosis ex vivo (CRLF2-rearranged PDXs [4]): induced apoptosis | proliferation ex vivo (CRLF2-rearranged PDXs [4]): consistently blocked proliferation | BCR-ABL inhibition compared with BBT594 (BCR-ABL): significantly reduced | activity against BRAF in the cellular setting (BRAF): not corroborated | induction of pSTAT5 by rhEpo ([17]; oral 30 mg/kg/day, administered 2 hr prior to sampling): completely blocked | time for which rhEpo induction of pSTAT5 remained attenuated ([17]; spleen and bone marrow): 48–72 hr | RET inhibition compared with BBT594 (RET [18]): significantly reduced | number of kinases with activity [19]: 26 kinases | IC50 (MHH-CALL4 cells [3]): ~100 nM | blood t1/2 (Pharmacokinetics; mice): 1 h | blood clearance (Pharmacokinetics; mouse, in vivo): moderate | oral bioavailability (Pharmacokinetics; mouse, in vivo, po): good

CC(=O)Nc1cc(Oc2ccc3c(c2)CCN3C(=O)Nc2ccc(CN3CCN(C)CC3)c(C(F)(F)F)c2)ncn1 [BBT594]
resistant clones recovered after selection [7]: Over 30 clones | JAK2 activation loop phosphorylation (MHH-CALL4 cells [1]): suppressed JAK2 phosphorylation | IC50 fold-shift for cells expressing L884P compared to cells without L884P [8]: 2–3 fold | suppressive effects on pJAK2, pSTAT5, and c-Myc in presence of L884P [14]: abrogated | IC50 fold-shift for cells expressing L884P compared to cells without L884P [2]: approximately 11 fold | apoptosis ex vivo (CRLF2-rearranged PDXs [4]): induced apoptosis | proliferation ex vivo (CRLF2-rearranged PDXs [4]): consistently blocked proliferation | IC50 (MHH-CALL4 cells [3]): ~100 nM
